How the values were obtained:
[1] = tested on: B16F10 melanoma cells; assay: B16F10 melanoma cell viability after irradiation in vitro; type: cell-based, mouse; conditions: 7N3 1 hour or morpholino 48 hours before 10 Gy, versus untreated cells
Protocol: FIG. 19. CD47 suppression enhances re-growth delay in irradiated syngeneic B16 melanoma and squamous cell carcinoma tumors but increases radioresistance of B16 cells in vitro. C57BL/6 mice were injected with 1×10^6 B16 mouse melanoma cells into their right hindlimbs. Five days later, the mice were randomized into 4 groups (12 mice in each group) where they either received injections of CD47 morpholino (10 μM) in sterile PBS, PBS, or no injection. The two groups receiving injections were then subjected to radiation (10 Gy) to the effected hindlimb 48 hours later. The other two groups served as controls and consisted of tumor alone or tumor subjected to only the morpholino. Tumors were followed post-radiation for 30 days, measuring their volume every 6 days (FIG. 19A). […] Cell (mitochondrial) viability was measured 48 hours post radiation using the MTT assay.
Cell Viability Assay. […] Cell viability was determined using the CellTiter 96 Aqueous One Solution cell proliferation assay (Promega, Madison, Wis.) as per the manufacturer's instructions and absorbance at 490 nm was determined using an MR580 Microelisa AutoReader (Dynatech, Alexandria, Va.). […]
Irradiation of cells. […] The dose rate at 50 cm from the x-ray source was 242 cGy/minute, as determined by multiple thermo luminescent dosimeter readings.

[2] = tested on: C57BL/6 mice; assay: Laser Doppler hind limb blood flow after NO challenge, 8 weeks post-radiation; type: in vivo, mouse; conditions: intramuscular 10 μM 48 hours before 25 Gy, 8 weeks post-injury
Protocol: FIG. 18. Targeting CD47 Protects Composite Tissue From Radiation-Induced Vascular Damage. Age matched male C57BL/6 mice received 25 Gy to both hind limbs. Forty-eight hours prior to irradiation the right hind limb was treated by direct intra-muscular injection with the CD47 morpholino (750 μl at 10 μM concentration). The opposite (control) limb received nothing. Eight weeks post-radiation hind limb blood flow changes to a nitric oxide (NO) challenge (DEA/NO 100 nmol/g body weight via rectal instillation) was assessed via Laser Doppler imaging (FIG. 18A). In other experiments, the opposite (control) limb received injection of either missense oligonucleotide or sterile PBS with similar results (not shown). Laser Doppler was performed under 1.5% isoflurane inhalation anesthesia with animal core temperature held constant at 36.5° C. […]
Laser Doppler analysis: Hind limb flow was measured using laser Doppler imaging (MoorLD1-2λ, Moor Instruments, Devon, England). […] Core temperature was monitored by rectal probe and was further controlled with a heat lamp. […] After equilibration to the experimental set-up baseline, hind limb blood flow was measured. […] Results are expressed as the change percent control from baseline of the ROI.
Laser Doppler Analysis: Hind limb blood flow was measured using laser Doppler imaging as described above. […]

Sequence: CGTCACAGGCAGGACCCACTGCCCA (all phosphorodiamidate morpholino (PMO)) [CD47 morpholino, CD47 targeting morpholino oligonucleotide]
- cell viability after 10 Gy [1]: mild radioprotective effect
- vascular perfusion in response to DEA/NO challenge (laser Doppler) [2]: enhanced vascular perfusion
